Calls of active or inactive are those of the source. No cut-off for these calls is given here.

Broadly, the Ki is a measure of affinity in units of concentration, obtained from inhibition or displacement. A word on the IC50: it is the concentration needed to halve the response being measured. Low readings indicate greater potency in that assay, high ones weaker potency in that assay. As usually defined, the EC50 is the concentration that produces a half-maximal response. One may read the pKb as the negative decadic logarithm of the Kb, by convention in mol/L.

In assay [1] the target is T1, Gastrin/cholecystokinin type B receptor (Homo sapiens, UniProt P32239).
T1 sequence (P32239 whole entry): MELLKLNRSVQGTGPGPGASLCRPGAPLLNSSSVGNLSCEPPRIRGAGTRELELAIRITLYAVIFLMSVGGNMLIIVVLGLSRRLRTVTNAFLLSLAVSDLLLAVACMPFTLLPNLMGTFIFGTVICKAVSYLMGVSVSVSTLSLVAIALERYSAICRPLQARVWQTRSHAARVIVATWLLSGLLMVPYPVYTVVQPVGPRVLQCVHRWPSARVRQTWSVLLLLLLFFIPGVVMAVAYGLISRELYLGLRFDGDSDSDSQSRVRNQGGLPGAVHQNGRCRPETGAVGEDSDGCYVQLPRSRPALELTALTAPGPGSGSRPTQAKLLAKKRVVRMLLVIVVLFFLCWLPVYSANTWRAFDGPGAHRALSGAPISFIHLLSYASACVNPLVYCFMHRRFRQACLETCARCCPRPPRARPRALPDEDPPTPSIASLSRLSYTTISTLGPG
Description: Displacement of [125I]BH-CCK-8S from human recombinant CCK2 receptor expressed in NIH3T3 cells. Format: cell-based. Background: Loss of bound radioactivity is the signal in a displacement assay; it reports binding, not function.

Assay [2] deals with T2, Cholecystokinin receptor type A (Homo sapiens, UniProt P32238).
T2 sequence (P32238 whole entry): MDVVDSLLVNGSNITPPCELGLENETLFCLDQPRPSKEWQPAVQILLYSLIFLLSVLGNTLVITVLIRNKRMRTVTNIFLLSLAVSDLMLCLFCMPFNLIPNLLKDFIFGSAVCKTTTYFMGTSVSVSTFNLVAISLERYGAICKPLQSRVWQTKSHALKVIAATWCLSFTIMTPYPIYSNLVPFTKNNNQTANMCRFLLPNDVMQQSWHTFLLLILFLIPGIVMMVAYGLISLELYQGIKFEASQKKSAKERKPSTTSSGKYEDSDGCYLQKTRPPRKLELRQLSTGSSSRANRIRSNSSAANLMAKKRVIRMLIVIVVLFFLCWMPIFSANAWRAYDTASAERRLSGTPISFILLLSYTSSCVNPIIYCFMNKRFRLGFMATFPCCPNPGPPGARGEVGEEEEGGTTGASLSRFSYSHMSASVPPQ
Description: Displacement of [3H]L-364718 from human recombinant CCK1 receptor expressed in CHO-K1 cells. Format: cell-based.

Assay [3] deals with T3, Cholecystokinin receptor type A (Cavia porcellus) (UniProt Q63931).
T3 sequence (whole entry): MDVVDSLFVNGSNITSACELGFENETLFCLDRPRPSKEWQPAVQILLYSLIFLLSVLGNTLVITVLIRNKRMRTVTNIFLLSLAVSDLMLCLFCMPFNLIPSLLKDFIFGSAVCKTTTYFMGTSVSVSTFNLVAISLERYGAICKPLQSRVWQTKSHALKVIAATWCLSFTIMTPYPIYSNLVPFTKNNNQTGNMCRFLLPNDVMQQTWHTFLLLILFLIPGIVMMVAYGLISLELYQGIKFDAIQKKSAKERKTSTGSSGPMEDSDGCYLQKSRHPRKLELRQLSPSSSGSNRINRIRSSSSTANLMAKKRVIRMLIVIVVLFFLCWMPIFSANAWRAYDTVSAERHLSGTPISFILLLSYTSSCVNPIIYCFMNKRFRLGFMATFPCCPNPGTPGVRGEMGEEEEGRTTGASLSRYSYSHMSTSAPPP
Description: Agonist activity at CCK1 receptor assessed as stimulation of contraction in guinea pig gallbladder at 30 uM relative to CCK8. Type of assay: functional.

Assay [4] concerns the target T4, Gastrin/cholecystokinin type B receptor (Mus musculus, UniProt P56481).
T4 sequence (P56481 whole entry): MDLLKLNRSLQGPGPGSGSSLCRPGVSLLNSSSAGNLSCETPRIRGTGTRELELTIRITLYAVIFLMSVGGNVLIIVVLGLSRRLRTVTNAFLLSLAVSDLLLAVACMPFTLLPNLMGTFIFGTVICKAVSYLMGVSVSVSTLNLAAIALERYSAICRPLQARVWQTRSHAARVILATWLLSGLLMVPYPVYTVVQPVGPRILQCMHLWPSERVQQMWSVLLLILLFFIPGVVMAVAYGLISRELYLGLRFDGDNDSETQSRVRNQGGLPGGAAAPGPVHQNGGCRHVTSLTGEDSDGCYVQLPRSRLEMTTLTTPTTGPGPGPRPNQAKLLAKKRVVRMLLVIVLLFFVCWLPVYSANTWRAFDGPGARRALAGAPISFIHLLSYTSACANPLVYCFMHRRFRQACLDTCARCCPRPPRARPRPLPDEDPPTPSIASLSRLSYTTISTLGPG
Briefly: Binding affinity to mouse CCK2 receptor.

Assay [5] concerns the target T5, Cholecystokinin receptor type A (Mus musculus, UniProt O08786).
T5 sequence (O08786 whole entry): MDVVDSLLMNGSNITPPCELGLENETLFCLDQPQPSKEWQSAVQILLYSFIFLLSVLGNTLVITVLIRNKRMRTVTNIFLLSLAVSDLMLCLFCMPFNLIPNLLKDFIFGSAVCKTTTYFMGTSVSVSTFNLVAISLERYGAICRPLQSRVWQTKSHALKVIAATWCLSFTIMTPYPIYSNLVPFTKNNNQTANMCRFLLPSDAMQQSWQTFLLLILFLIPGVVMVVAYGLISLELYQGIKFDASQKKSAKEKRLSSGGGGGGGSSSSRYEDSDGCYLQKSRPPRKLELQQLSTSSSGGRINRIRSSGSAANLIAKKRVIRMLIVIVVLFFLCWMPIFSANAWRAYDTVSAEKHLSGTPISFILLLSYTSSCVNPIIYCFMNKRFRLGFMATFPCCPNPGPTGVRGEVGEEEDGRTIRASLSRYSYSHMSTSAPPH
Description: Binding affinity to mouse CCK1 receptor.

For assay [6], the target named is T1, Gastrin/cholecystokinin type B receptor. Briefly: Binding affinity at human CCK2 receptor.
For assay [7], the target named is T2, Cholecystokinin receptor type A. Description: Binding affinity to human CCK1 receptor.
Assay [8] has as its target T6, Cholecystokinin receptor type A (Cavia porcellus, UniProt Q63931).
T6 sequence (Q63931 whole entry): T3 sequence (whole entry)
Description: (§1) Agonist activity at CCK1 receptor assessed as stimulation of contraction in guinea pig gallbladder. Format: functional.

Assay [9] deals with T3, Cholecystokinin receptor type A (Cavia porcellus). Described as §1. Format: functional.
The target of assay [10] is T7, Gastrin/cholecystokinin type B receptor (Rattus norvegicus) (UniProt P30553).
T7 sequence (whole entry): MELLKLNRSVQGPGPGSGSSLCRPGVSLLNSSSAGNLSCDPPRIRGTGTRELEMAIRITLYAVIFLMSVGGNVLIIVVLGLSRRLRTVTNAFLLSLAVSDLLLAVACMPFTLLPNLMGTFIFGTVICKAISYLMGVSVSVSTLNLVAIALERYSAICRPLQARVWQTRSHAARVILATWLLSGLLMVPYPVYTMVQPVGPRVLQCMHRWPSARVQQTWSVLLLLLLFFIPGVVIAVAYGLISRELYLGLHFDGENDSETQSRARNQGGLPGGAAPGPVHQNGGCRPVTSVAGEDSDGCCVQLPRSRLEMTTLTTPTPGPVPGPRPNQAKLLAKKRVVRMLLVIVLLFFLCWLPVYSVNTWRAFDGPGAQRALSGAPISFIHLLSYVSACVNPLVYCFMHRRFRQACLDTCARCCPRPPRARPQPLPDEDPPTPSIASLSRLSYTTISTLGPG
Briefly: Antagonist activity at CCK2 receptor in immature rat stomach assessed as pentagastrin-induced acid secretion at 1 uM. Format: functional, tissue-based.

`CN(c1cccc(NC(=O)CN2C(=O)N(CC(=O)C(C)(C)C)c3ccccc3N(C3CCCCC3)C2=O)c1)c1nn[nH]n1`: the Ki is 4.27 nM in assay [1] and 2090 nM in assay [2].

As for `Cc1nc(-c2cccc(NC(=O)CN3C(=O)N(CC(=O)C(C)(C)C)c4ccccc4N(C4CCCCC4)C3=O)c2)cs1`, the inhibition constant (Ki) is 9.55 nM in assay [1] and 1550 nM in assay [2].

As for `CC(C)(C)C(=O)CN1C(=O)N(CC(=O)Nc2cccc(CC(=O)O)c2)C(=O)N(C2CCCCCC2)c2ccccc21`, the results for the inhibitory constant (Ki) in assay [1] and in assay [2] were 3.16 nM and 3890 nM, respectively.

Take `CC(C)(C)C(=O)CN1C(=O)N(CCCC(=O)Nc2cccc(-c3nc(=O)o[nH]3)c2)C(=O)N(C2CCCCC2)c2ccccc21`: the Ki in [1] was 20.9 nM; in assay [2], 72.4 nM.

On to `Cc1cccc(NC(=O)CN2C(=O)N(CC(=O)C(C)(C)C)c3ccccc3N(C3CCCCCC3)C2=O)c1`, for which the Ki in assay [1] is 7.59 nM; in [2], 447 nM.

`CC(C)(C)C(=O)CN1C(=O)N(CC(=O)Nc2cccc(SCC(=O)O)c2)C(=O)N(C2CCCCCC2)c2ccccc21`: the results for the Ki in [1] and in assay [2] were 0.891 nM and 282 nM, respectively.

With `CC(C)N(C(=O)CN1C(=O)C(NC(=O)Nc2ccccc2)C(=O)N(c2ccccc2)c2ccccc21)c1ccccc1` (centres undefined), the Activity in [3] amounted to 86%.

As for `Cc1cccc(NC(=O)NC2C(=O)N(CC(=O)N3CCCC3)c3ccccc3N(CC(=O)N3CCCC3)C2=O)c1`, the values for the IC50 in [4] and in assay [5] were 50.1 nM and 794 nM, respectively.

As for `CC(C)(C)C(=O)CN1C(=O)N(CC(=O)Nc2cccc(-c3nc(=O)o[nH]3)c2)C(=O)N(C2CCCCC2)c2ccccc21`, the values for the Ki in assay [1] and in assay [2] were 1.2 nM and 316 nM, respectively.

Turning to `O=C(CN1C(=O)N(CC(=O)N2CCCC2)c2ccccc2N(c2ccccc2)C1=O)Nc1cccc(C(=O)O)c1`, the Ki in assay [1] was 380 nM; in assay [2], more than 10000 nM.

In the case of `CC(C)(C)C(=O)CN1C(=O)N(CC(=O)Nc2cccc(-c3nc(=O)o[nH]3)c2)C(=O)N(C2CCCCCC2)c2ccccc21`, the values for the Ki in assay [1] and in assay [2] were 0.427 nM and 117 nM, respectively.

Regarding `CC(C)(C)C(=O)CN1C(=O)N(CC(=O)Nc2cccc(C(=O)O)c2)N=C(C2CCCCC2)c2ccccc21`, the inhibitory constant (Ki) is 1 nM in assay [6] and 10000 nM in [7].

In the case of `CC(C)N(C(=O)CN1C(=O)C(NC(=O)Nc2cccc(C(=O)O)c2)C(=O)N(c2ccccc2)c2ccccc21)c1ccccc1` (centres undefined), the Activity in assay [3] amounted to 102%. Moreover, the Ki in [6] was 10 nM; in [7], 126 nM. The EC50 in assay [8] was 39.8 nM.

Consider `CN(C(=O)CN1C(=O)C(NC(=O)Nc2ccccc2)C(=O)N(c2ccccc2)c2ccccc21)c1ccccc1` (centres undefined), for which the outcome in assay [3] was inactive. For the same compound, the negative logarithm of the Kb (pKb) in assay [9] came to 6.3.

Regarding `O=C(CN1C(=O)N(CC(=O)N2CCCC2)c2ccccc2N(c2ccccc2)C1=O)Nc1ccccc1`, the inhibitory constant (Ki) in assay [1] was 1000 nM; in assay [2], more than 10000 nM.

Regarding `Cc1cccc(NC(=O)CN2C(=O)N(CC(=O)N3CCCC3)c3ccccc3N(C3CCCCCC3)C2=O)c1`, the Ki is 23.4 nM in [1] and 617 nM in [2]. Besides, the result in [10] was inactive.

On to `CNc1cccc(NC(=O)N[C@@H]2N=C(c3ccccn3)c3ccccc3N(CC(=O)C(C)(C)C)C2=O)c1` [NETAZEPIDE], for which the Ki was 0.0794 nM in assay [6] and 31.6 nM in assay [7].

As for `CNc1cccc(NC(=O)CN2C(=O)N(CC(=O)C(C)(C)C)c3ccccc3N(C3CCCCC3)C2=O)c1`, the Ki was 9.55 nM in [1] and 2340 nM in [2].

As to `CC(C)N(C(=O)CN1C(=O)C(CC(=O)Nc2ccccc2)C(=O)N(c2ccccc2)c2ccccc21)c1ccccc1` (centres undefined), the Activity in assay [3] was found to be 50%. Also, the inhibition constant Ki was 794 nM in [6] and 158 nM in assay [7]. Besides, the EC50 in assay [8] was 398 nM.

Consider `CC(C)(C)C(=O)CN1C(=O)N(CC(=O)Nc2cccc(CCC(=O)O)c2)C(=O)N(C2CCCCC2)c2ccccc21`, for which the Ki in assay [1] is 6.31 nM; in [2], 2340 nM.

(Values after ChEMBL document CHEMBL1145547, “Achiral, selective CCK2 receptor antagonists based on a 1,3,5-benzotriazepine-2,4-dione template” (Bioorg Med Chem, 2008).)
